In experiment [1] the target is T1, pseudo-kinase domain (JH2, amino-acids 536-812) of human V617F mutant JAK2 (Homo sapiens, UniProt O60674, F794H/V617F/W659A/W777A).
T1 construct: pseudo-kinase domain (JH2, amino-acids 536-812 with 3 surface mutations W659A, W777A, F794H); His (C); purchased BPS Bioscience 79498; host or cells: baculovirus expression system
In words: JAK2 LanthaScreen JH2-V617F Binding Assay. The note with it: JAK2 JH2-V617F 0.26 nM, 50 nM tracer, 1 hour at 25° C.; read-out: JH2 BIND V617F. In short, it runs like this:
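Competition of compounds with a fluorescent tracer (50 nM) for the biotinylated domain (0.26 nM), detected via streptavidin-Tb (0.25 nM) after 1 h at 25° C in pH 7.5 Tris buffer containing glycerol, BSA and Brij-35. ATP at 2 mM gave background. IC50 by four-parameter fit.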
For orientation: Time-resolved FRET reads energy transfer from a long-lived donor to a nearby acceptor.

Experiment [2] addresses T2, pseudo-kinase domain (JH2, amino-acids 536-812) of human Wild Type JAK2 (Homo sapiens, UniProt O60674, F794H/W659A/W777A).
T2 construct: pseudo-kinase domain (JH2, amino-acids 536-812 with 3 surface mutations W659A, W777A, F794H); His (C); purchased BPS Bioscience 79463; host or cells: baculovirus expression system
Description: JAK2 LanthaScreen JH2-WT Binding Assay. The note with it: JAK2 JH2-WT 0.145 nM, 50 nM tracer, 1 hour at 25° C.; read-out: JH2 BIND WT. In short, it runs like this: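 Biotinylated His-Avi-tagged JAK2 JH2 (0.145 nM), baculovirus-expressed, incubated with compounds, 50 nM fluorescent JH2 tracer and 0.25 nM streptavidin-Tb, 1 h at 25° C in pH 7.5 Tris buffer with MgCl2 and DTT. Non-specific binding defined with 2 mM ATP. TR-FRET read; IC50 from four-parameter fit.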

Experiment [3] concerns the target catalytic domain (JH1, amino acids 808-1132) of human JAK2 (Homo sapiens, UniProt O60674). In words: JAK2 HTRF Enzyme Activity Assay. It is filed as biochemical. The note with it: ATP 30 µM, 60 minutes at 25° C.; read-out: V617F ENZ 30 UM.
Experiment [4] has as its target T3, catalytic domain (JH1, amino acids 826-1132) of human JAK2 (Homo sapiens, UniProt O60674).
T3 construct: catalytic domain (JH1, amino acids 826-1132) of human JAK2; FLAG (N); biotin (biotinylated); purchased Carna Biosciences 08-445-20N; host or cells: baculovirus expression system
Description: JAK2 LanthaScreen JH1 Binding Assay. To be noted: JAK2 JH1 1.5 nM, 50 nM tracer, 2 hours at 25° C.; read-out: JH1 BIND. In short, it runs like this:
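FLAG-tagged, biotinylated JAK2 JH1 (aa 826-1132, baculovirus-expressed; 1.5 nM) incubated 2 h at 25° C with compounds, 50 nM fluorescent tracer and 0.5 nM Streptavidin-Tb in Tris pH 7.5 buffer with MgCl2, Brij-35, BSA, EGTA, glycerol, DTT. Nonspecific binding defined with 2 mM ATP; TR-FRET IC50 from four-parameter fit.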

Bounds are passed on as bounds.

T2 sequence (O60674 536-812 W659A/W777A/F794H): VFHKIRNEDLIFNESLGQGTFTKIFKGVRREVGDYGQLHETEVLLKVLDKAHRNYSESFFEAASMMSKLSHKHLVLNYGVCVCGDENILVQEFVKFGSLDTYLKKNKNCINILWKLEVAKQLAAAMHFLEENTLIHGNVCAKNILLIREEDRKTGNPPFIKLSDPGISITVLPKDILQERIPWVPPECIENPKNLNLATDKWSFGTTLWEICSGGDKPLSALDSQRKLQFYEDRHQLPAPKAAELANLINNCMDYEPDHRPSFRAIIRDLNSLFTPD
T1 sequence (O60674 536-812 V617F/W659A/W777A/F794H): as the sequence (O60674 536-812 W659A/W777A/F794H) above, with V82F counted along it
T3 sequence (O60674 826-1132): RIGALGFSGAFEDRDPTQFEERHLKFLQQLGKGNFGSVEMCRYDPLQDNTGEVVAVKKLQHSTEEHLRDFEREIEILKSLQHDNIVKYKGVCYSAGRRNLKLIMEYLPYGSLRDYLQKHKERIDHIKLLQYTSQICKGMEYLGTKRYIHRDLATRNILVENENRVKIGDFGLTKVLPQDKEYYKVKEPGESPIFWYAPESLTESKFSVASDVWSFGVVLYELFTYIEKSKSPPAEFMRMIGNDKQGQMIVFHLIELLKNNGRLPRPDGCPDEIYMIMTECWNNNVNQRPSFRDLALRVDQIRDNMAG
Chain of catalytic domain (JH1, amino acids 808-1132) of human JAK2 (O60674 808-1132 limits assumed): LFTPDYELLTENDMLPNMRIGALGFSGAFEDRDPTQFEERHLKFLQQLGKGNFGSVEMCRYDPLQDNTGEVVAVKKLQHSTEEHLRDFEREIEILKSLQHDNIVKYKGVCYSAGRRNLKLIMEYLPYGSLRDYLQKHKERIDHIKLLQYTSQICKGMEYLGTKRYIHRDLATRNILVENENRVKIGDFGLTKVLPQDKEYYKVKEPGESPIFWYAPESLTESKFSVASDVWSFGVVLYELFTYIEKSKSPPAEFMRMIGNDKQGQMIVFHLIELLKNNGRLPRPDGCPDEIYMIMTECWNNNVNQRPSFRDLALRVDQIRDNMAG

Take `COC(=O)N[C@@H]1CC[C@@H](n2c(=O)n(C)c3cnc(Nc4ccnc(N5CCC(F)(F)C5)n4)cc32)C1` [Example 78, Methyl ((1R,3R)-3-(6-((2-(3,3-difluoropyrrolidin-1-yl)pyrimidin-4-yl)amino)-3-methyl-2-oxo-2,3-dihydro-1H-imidazo[4,5-c]pyridin-1-yl)cyclopentyl)carbamate]: the IC50 in experiment [1] was at most 0.01 µM; in experiment [2], at most 0.01 µM; in experiment [3] it was above 1 µM; in experiment [4], above 1 µM.

For `[2H]C([2H])([2H])n1c(=O)n([C@@H]2CC[C@@H](NC(=O)OC)C2)c2cc(Nc3cc(C(=O)N4CC5(CCN5C)C4)c4cccc(C(F)(F)F)c4n3)ncc21` [Example 3, Methyl ((1R,3R)-3-(3-(methyl-d3)-6-((4-(1-methyl-1,6-diazaspiro[3.3]heptane-6-carbonyl)-8-(trifluoromethyl)quinolin-2-yl)amino)-2-oxo-2,3-dihydro-1H-imidazo[4,5-c]pyridin-1-yl)cyclopentyl)carbamate], the IC50 in experiment [1] is at most 0.01 µM; in experiment [2], at most 0.01 µM; in experiment [3], 0.5 to 1 µM; in experiment [4], above 1 µM.

Take `[2H]C([2H])([2H])n1c(=O)n([C@@H]2CC[C@@H](NC(=O)OC)C2)c2cc(Nc3cc(C(=O)N4CCN5CCCCC5C4)cc(-c4ccc5c(c4)OCCO5)n3)ncc21` (stereo partly drawn) [Example 76, Methyl ((1R,3R)-3-(6-((6-(2,3-dihydrobenzo[b][1,4]dioxin-6-yl)-4-(octahydro-2H-pyrido[1,2-a]pyrazine-2-carbonyl)pyridin-2-yl)amino)-3-(methyl-d3)-2-oxo-2,3-dihydro-1H-imidazo[4,5-c]pyridin-1-yl)cyclopentyl)carbamate]: the IC50 is at most 0.01 µM in experiment [1], at most 0.01 µM in experiment [2], above 1 µM in experiment [3] and above 1 µM in experiment [4].

On to `[2H]C([2H])([2H])n1c(=O)n([C@@H]2CC[C@@H](NC(=O)OC)C2)c2cc(Nc3cc(C(=O)N4CC5CC5(O)C4)c4cccc(C(F)(F)F)c4n3)ncc21` (stereo partly drawn) [Example 10, Methyl ((1R,3R)-3-(6-((4-(1-hydroxy-3-azabicyclo[3.1.0]hexane-3-carbonyl)-8-(trifluoromethyl)quinolin-2-yl)amino)-3-(methyl-d3)-2-oxo-2,3-dihydro-1H-imidazo[4,5-c]pyridin-1-yl)cyclopentyl)carbamate], for which the IC50 in experiment [1] is at most 0.01 µM; in experiment [2] it was at most 0.01 µM; in experiment [3] it was 0.1 to 0.5 µM; in experiment [4] it was 0.5 to 1 µM.

As for `COC(=O)Nc1cc(Nc2cc3c(cn2)n(C)c(=O)n3C2[C@H]3CN(C(=O)OC)C[C@@H]23)cc(-c2cnn(C)c2)c1` (stereo partly drawn) [Example 39, Methyl (1R,5S)-6-(6-((3-((methoxycarbonyl)amino)-5-(1-methyl-1H-pyrazol-4-yl)phenyl)amino)-3-methyl-2-oxo-2,3-dihydro-1H-imidazo[4,5-c]pyridin-1-yl)-3-azabicyclo[3.1.0]hexane-3-carboxylate], the IC50 in experiment [1] is 0.1 to 0.5 µM; in experiment [2], 0.1 to 0.5 µM; in experiment [3], above 1 µM; in experiment [4], above 1 µM.

Regarding `COC(=O)Nc1cc(Nc2cc3c(cn2)n(C)c(=O)n3[C@@H]2CC[C@H](F)C2)cc(-c2cnn(C)c2)c1` [Example 31, Methyl (3-((1-((1R,3S)-3-fluorocyclopentyl)-3-methyl-2-oxo-2,3-dihydro-1H-imidazo[4,5-c]pyridin-6-yl)amino)-5-(1-methyl-1H-pyrazol-4-yl)phenyl)carbamate], the IC50 is 0.01 to 0.1 µM in experiment [1], 0.01 to 0.1 µM in experiment [2], above 1 µM in experiment [3] and above 1 µM in experiment [4].

Consider `[2H]C([2H])([2H])n1c(=O)n([C@@H]2CC[C@@H](NC(=O)OC)C2)c2cc(Nc3cc(C(=O)N4CCOCC4)c4cccc(C(C)(C)C#N)c4n3)ncc21` [Example 96, Methyl ((1R,3R)-3-(6-((8-(2-cyanopropan-2-yl)-4-(morpholine-4-carbonyl)quinolin-2-yl)amino)-3-(methyl-d3)-2-oxo-2,3-dihydro-1H-imidazo[4,5-c]pyridin-1-yl)cyclopentyl)carbamate], for which the IC50 was at most 0.01 µM in experiment [1], at most 0.01 µM in experiment [2], above 1 µM in experiment [3] and above 1 µM in experiment [4].

As for `COC(=O)Nc1cc(Nc2cc3c(cn2)n(C)c(=O)n3[C@@H]2CC[C@@H](NC(=O)OC)C2)cc(-c2cnn(C)c2)c1` [Example 53, Methyl ((1R,3R)-3-(6-((3-((methoxycarbonyl)amino)-5-(1-methyl-1H-pyrazol-4-yl)phenyl)amino)-3-methyl-2-oxo-2,3-dihydro-1H-imidazo[4,5-c]pyridin-1-yl)cyclopentyl)carbamate], the IC50 was 0.01 to 0.1 µM in experiment [1], at most 0.01 µM in experiment [2], above 1 µM in experiment [3] and above 1 µM in experiment [4].

On to `COC(=O)Nc1cc(Nc2cc3c(cn2)n(C)c(=O)n3[C@@H]2CC[C@@H](NC(=O)OC)C2)cc(C2CCN(C)CC2)c1` [Example 15, Methyl (3-((1-((1R,3R)-3-((methoxycarbonyl)amino)cyclopentyl)-3-methyl-2-oxo-2,3-dihydro-1H-imidazo[4,5-c]pyridin-6-yl)amino)-5-(1-methylpiperidin-4-yl)phenyl)carbamate], for which the IC50 was 0.01 to 0.1 µM in experiment [1], at most 0.01 µM in experiment [2], above 1 µM in experiment [3] and above 1 µM in experiment [4].

For the compound `COC(=O)Nc1cc(Nc2cc3c(cn2)n(C)c(=O)n3C2CCC(C)(NC(=O)OC)CC2)cc(-c2cnn(C)c2)c1` (stereo not drawn) [Example 42, Methyl (3-((1-(4-((methoxycarbonyl)amino)-4-methylcyclohexyl)-3-methyl-2-oxo-2,3-dihydro-1H-imidazo[4,5-c]pyridin-6-yl)amino)-5-(1-methyl-1H-pyrazol-4-yl)phenyl)carbamate], the IC50 was 0.01 to 0.1 µM in experiment [1], 0.01 to 0.1 µM in experiment [2], above 1 µM in experiment [3] and above 1 µM in experiment [4].

Turning to `COC(=O)N[C@@H]1CC[C@@H](n2c(=O)n(C)c3cnc(Nc4ccc5cccc(-c6cnn(C)c6)c5n4)cc32)C1` [Example 33, Methyl ((1R,3R)-3-(3-methyl-6-((8-(1-methyl-1H-pyrazol-4-yl)quinolin-2-yl)amino)-2-oxo-2,3-dihydro-1H-imidazo[4,5-c]pyridin-1-yl)cyclopentyl)carbamate], the IC50 was 0.01 to 0.1 µM in experiment [1], 0.01 to 0.1 µM in experiment [2], above 1 µM in experiment [3] and above 1 µM in experiment [4].

As to `COC(=O)N[C@@H]1CC[C@@H](n2c(=O)n(C)c3cnc(Nc4cccc(-c5ccc6c(c5)OCCN6C)n4)cc32)C1` [Example 11, Methyl ((1R,3R)-3-(3-methyl-6-((6-(4-methyl-3,4-dihydro-2H-benzo[b][1,4]oxazin-7-yl)pyridin-2-yl)amino)-2-oxo-2,3-dihydro-1H-imidazo[4,5-c]pyridin-1-yl)cyclopentyl)carbamate], the IC50 in experiment [1] is at most 0.01 µM; in experiment [2] it was at most 0.01 µM; in experiment [3], above 1 µM; in experiment [4], above 1 µM.

(Values after US20240317744A1, “Bicyclic Ureas As Kinase Inhibitors” (Incyte Corporation, priority 2023, published 2024).)
